Data as given in patent US20190159455A1 (priority 2016, published 2019).
Read-outs that look alike come from different tables or passages of the source.

System: Phytophthora infestans(Phytin)
Assay type: cell-based
Conditions: 7 days after inoculation

| SMILES | Observed efficacy (1 ppm) | Observed efficacy (4 ppm) |
| --- | --- | --- |
| O=C(NCCc1ncc(C(F)(F)F)cc1Cl)c1ccccc1C(F)(F)F [Fluopyram, fluopyram] | 10 | – |
| c1ccc(-c2noc(-c3cccs3)n2)cc1 [Tioxazafen, tioxazafen] | – | 7 |
